Laboratory results from the supplement of paper PMC10307832.

Key:
Assay in all cases: relative viability (nuclei count vs DMSO), 5 days (fraction); higher = more cells survive
[1] = compound: C1CNCCC1C2=CC(=NN2)C3=CC=NC=C3 + COc1cccc2cc(-c3nc([C@H]4CC[C@H](C(=O)O)CC4)n4ncnc(N)c34)[nH]c12 [OSI-027] (partner 0.5 µM)
In short: (§1)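 Lung cancer cell lines in 1536-well plates were dosed by pin tool the day after seeding, either with one drug alone or with a fixed anchor-drug dose plus five library-drug doses (not always all listed) in √10 steps. After 5 days, cells were fixed and their nuclei stained in one step (final 0.05% Triton X-100, 1% formaldehyde, 1 ug/ml Hoechst), then counted on 4× images. Relative viability is the nuclei count in treated wells divided by that in vehicle wells. Values are medians of duplicate plates.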

[2] = compound: C[C@@H](N)c1ccc(C(=O)Nc2ccnc3[nH]ccc23)cc1 + CC(C)C[C@H](NC(=O)[C@H](Cc1ccccc1)NC(=O)c1cnccn1)B(O)O [Bortezomib] (partner 0.002 µM)
In short: as §1

Tanzisertib + Bortezomib = compound: O[C@H]1CC[C@H](Nc2ncc3nc(Nc4c(F)cc(F)cc4F)n([C@H]4CCOC4)c3n2)CC1 [Tanzisertib] + CC(C)C[C@H](NC(=O)[C@H](Cc1ccccc1)NC(=O)c1cnccn1)B(O)O [Bortezomib] (partner 0.002 µM)
In short: as §1

[3] = compound: C1CNCCC1C2=CC(=NN2)C3=CC=NC=C3 + N=C(N)NC(=N)NCCc1ccccc1 [Phenformin] (partner 250 µM)
In short: as §1

Cell Line	relative viability ([1]; first compound 0.08 µM)	relative viability ([1]; first compound 0.8 µM)	relative viability ([1]; first compound 2.53 µM)	relative viability ([1]; first compound 8 µM)	relative viability ([2]; first compound 0.04 µM)	relative viability ([2]; first compound 0.1265 µM)	relative viability ([2]; first compound 0.4 µM)	relative viability ([2]; first compound 1.265 µM)	relative viability ([2]; first compound 4 µM)	relative viability (Tanzisertib + Bortezomib; first compound 0.08 µM)	relative viability (Tanzisertib + Bortezomib; first compound 0.253 µM)	relative viability (Tanzisertib + Bortezomib; first compound 0.8 µM)	relative viability (Tanzisertib + Bortezomib; first compound 2.53 µM)	relative viability (Tanzisertib + Bortezomib; first compound 8 µM)	relative viability ([3]; first compound 0.08 µM)	relative viability ([3]; first compound 0.8 µM)	relative viability ([3]; first compound 2.53 µM)	relative viability ([3]; first compound 8 µM)
NCI-H460	0.496	0.833	0.775	0.676	0.996	1.15	1.11	1.17	1.09	1.21	1.2	1.12	1.07	0.965	0.335	0.72	0.564	0.51
NCI-H520	0.247	0.2	0.236	0.311	0.756	0.716	0.628	0.638	0.54	0.945	0.739	0.606	0.51	0.446	0.439	0.309	0.758	0.908
NCI-H596	0.838	0.763	0.784	0.736	1.05	0.856	1.14	1.23	1.26	1.1	0.99	1.2	0.907	1.1	0.657	0.841	0.927	0.86
NCI-H647	0.631	0.68	0.66	0.589	0.846	1.02	1.09	0.868	0.869	1.03	1.01	1	1.14	1.02	0.44	0.487	0.52	0.533
NCI-H650	0.513	0.58	0.505	0.543	0.586	0.695	0.86	–	0.64	0.868	1	0.87	0.945	0.366	0.5	0.451	0.473	0.46
NCI-H661	0.707	0.835	0.739	0.634	0.739	0.844	0.94	0.76	0.737	0.859	0.64	0.874	0.567	0.795	0.277	0.263	0.273	0.273
NCI-H727	0.613	0.579	0.816	0.815	1.09	1.05	1.38	0.67	1.12	1	0.762	1.04	0.806	0.64	0.529	0.468	0.619	0.631
NCI-H838	0.385	0.423	0.394	0.491	0.624	0.758	0.605	0.393	0.342	1.24	0.971	0.807	0.778	0.643	0.605	0.546	0.577	0.563
NCI-H1355	0.446	0.372	0.472	0.476	1.04	1.22	1.35	–	1.26	1.1	1.34	1.23	1.23	1.34	0.482	0.463	0.49	0.456
NCI-H1437	0.835	0.922	0.896	0.97	0.623	0.53	0.563	0.427	0.555	0.663	0.648	0.479	0.531	0.393	0.34	0.313	0.298	0.299
NCI-H1563	0.74	0.771	0.749	0.769	0.776	0.798	0.777	0.699	0.897	0.957	0.859	0.917	0.829	0.945	0.619	0.642	0.679	0.673
NCI-H1650	0.552	0.744	0.751	0.625	0.227	0.199	0.221	0.205	0.203	0.192	0.217	0.201	0.195	0.182	0.287	0.442	0.428	0.356
NCI-H1651	0.649	0.767	0.827	0.76	1.02	0.998	0.997	0.795	0.934	0.897	0.917	0.925	0.875	0.853	0.351	0.3	0.333	0.344
NCI-H1666	0.871	0.967	0.794	0.878	0.991	1.12	1.04	0.984	0.932	0.75	0.732	1.03	0.872	0.909	0.571	0.587	0.561	0.553
NCI-H1734	0.543	0.616	0.674	0.653	0.847	0.915	0.911	–	0.759	1.04	0.936	0.856	1.02	0.881	0.348	0.421	0.36	0.401
NCI-H1755	0.738	–	0.754	0.69	0.929	0.949	0.966	0.906	0.677	1.03	0.995	0.986	0.957	0.942	0.631	–	0.688	0.553
NCI-H1792	0.74	0.766	0.706	0.749	0.955	0.983	1.02	1.03	0.797	0.98	1.08	0.937	0.882	0.982	0.231	0.237	0.38	0.227
